Patent US20050054629A1, “Compounds and methods of treating cell proliferative diseases” (priority 2002, published 2005)

Key:
[1] = tested on: HCT116 colon adenocarcinoma; assay: Cytotoxicity assay (MTT), 6 days; type: cell-based, human; details: Homo sapiens, HCT-116, 144 h, 6 days of treatment, read-out: Toxicity 6d (IC 50, μM) HCT116
From the text: (§1) Four human tumoral cell lines, namely HCT116 colon adenocarcinoma, H460 lung carcinoma, MCF-7 and MDA-MB-231 breast carcinoma cell lines, and three immortalized but non tumorigenic cell lines, namely NIH3T3 mouse fibroblasts and human breast-derived MCF10-A and MRC-5 were purchased at ATCC and cultured according to their recommendations. In order to determine the cytotoxicity associated with one compound, a microculture tetrazolium assay (MTT), as described by Carmichael et al (Cancer Res, 1996) with modifications, was used. Briefly, 5.10^3 or 2.10^4 cells were seeded per well in 24-well plates 24 hours before drug addition. Cells were treated with 0, 1, 10, 17.5, 25 and 50 μM of compound solubilized in DMSO, adjusting the total volume of DMSO (Dimethylsulfoxide) to 1%. Forty-eight hours or 6 days after treatment, the medium was replaced by PBS containing 0.5 mg/ml MTT (Sigma) and cells were incubated for 3 more hours at 37° C. before solubilization of formazan crystals in 100% DMSO. Absorbance was measured using a spectrophotometer at a wavelength of 550 nm. Cell surviving fraction and 50% inhibitory concentration were calculated. All assays were performed in triplicate.

H460 lung carcinoma = assay: Cytotoxicity assay (MTT), 6 days; type: cell-based; details: Homo sapiens, NCI-H460, 144 h, 6 days of treatment, read-out: Toxicity 6d (IC 50, μM) H460
From the text: as §1

MCF-7 breast carcinoma = assay: Cytotoxicity assay (MTT), 6 days; type: cell-based; details: Homo sapiens, MCF7, 144 h, 6 days of treatment, read-out: Toxicity 6d (IC 50, μM) MCF7
From the text: as §1

[2] = tested on: MDA-MB-231 breast carcinoma; assay: Cytotoxicity assay (MTT), 6 days; type: cell-based; details: Homo sapiens, MDA-MB-231, 144 h, 6 days of treatment, read-out: Toxicity 6d (IC 50, μM) MDA231
From the text: as §1

NIH3T3 mouse fibroblasts = assay: Cytotoxicity assay (MTT), 6 days; type: cell-based; details: NIH3T3, 144 h, 6 days of treatment, read-out: Toxicity 6d (IC 50, μM) NIH3T3
From the text: as §1

cell architecture = assay: Cell architecture modification, phase contrast; type: cell-based; design: key: −: no effect of the compound was observed; +: an effect of the compound was observed
MDA-MB-231 cells = assay: Matrigel invasion assay (Boyden chamber); type: cell-based, human; details: MDA-MB-231, Boyden chamber, matrigel
Procedure: Chemoinvasion assay was performed in Boyden chamber as described by Albini et al (Cancer Res, 1987) with some modifications. Polycarbonate membranes with 8 μm pores were coated with matrigel (125 μg/cm^2) at room temperature for 48 h. Two hours before experiments, the matrix was […] with serum-free medium containing 0.1% BSA.
One day after seeding, 10^6 MDA-MB-231 cells were treated overnight with different concentrations of compounds (1, 10, 17.5, 25 and 50 μM). Cells were collected with Versene (Invitrogen), counted with trypan blue exclusion, rinsed twice in serum-free medium containing 0.1% BSA and resuspended in serum-free medium containing 0.1% BSA plus the appropriate concentration of compound. 10^5 treated cells were placed in the upper chamber. Medium containing 10% of FBS plus the appropriate concentration of compound was placed in the lower chamber as a chemoattractant. The Boyden chamber was incubated 6 hours at 37° C. before the cells were fixed and stained with Diff-Quick (Dade-Berhing). Cells on the upper part of the filters were removed using a cotton swab. Cells on the underside of the filters were visualised and counted under light microscope.

Row | melting point | SMILES | IC50 [1] [µM] | IC50 (H460 lung carcinoma) [µM] | IC50 (MCF-7 breast carcinoma) [µM] | IC50 [2] [µM] | also measured
1 |  | O=C(O)c1cc(=O)c(OCCCCCOc2ccc(Cl)c(Cl)c2)co1 [EH6600, 5-[5-(3,4-Dichlorophenyloxy)pentyloxy]-4-oxo-4H-pyran-2-carboxylic acid] | > 50 | > 50 | 30 | > 25 | 
2 |  | C/C=C/c1oc(C(=O)O)cc(=O)c1OCCCCCOc1ccc(Cl)c(Cl)c1 [EH10501] | > 50 | > 50 | > 50 | > 50 | IC50 (NIH3T3 mouse fibroblasts): > 50 µM
3 |  | C/C=C/c1oc(C(=O)O)cc(=O)c1OCCCCCOc1ccccc1CCC [EH15301, (E)-2-(Propen-1-yl)-3-[5-(2-propylphenyloxy)pentyloxy]-4-oxo-4H-pyran-6-carboxylic acid] | > 50 | > 50 | > 50 | > 50 | IC50 (NIH3T3 mouse fibroblasts): > 50 µM
4 |  | O=C(O)c1cc(=O)c(OCCCCCOc2cccc(Cl)c2)co1 [EH15700, 5-[5-(3-Chlorophenyloxy)pentyloxy]-4-oxo-4H-pyran-2-carboxylic acid] | > 50 | > 50 | > 50 | 20 | 
5 |  | C/C=C/c1oc(C(=O)O)cc(=O)c1OCCCCCOc1ccc(Cl)cc1 [EH17401, (E)-3-[5-(4-Chlorophenyloxy)pentyloxy]-2-(propen-1-yl)-4-oxo-4H-pyran-6-carboxylic acid] | > 50 | > 50 | > 50 | > 50 | IC50 (NIH3T3 mouse fibroblasts): > 50 µM
6 |  | O=C(O)c1cc(=O)c(OCCCCCOc2ccc(Cl)cc2)co1 [EH17600, 5-[5-(4-Chlorophenyloxy)pentyloxy]-4-oxo-4H-pyran-2-carboxylic acid] | > 50 | > 50 | 17.5 | > 25 | 
7 |  | C/C=C/c1oc(C(=O)O)cc(=O)c1OCCCCCOc1cccc(Cl)c1 [EH18401, (E)-3-[5-(3-Chlorophenyloxy)pentyloxy]-2-(propen-1-yl)-4-oxo-4H-pyran-6-carboxylic acid] | > 50 | > 50 | > 50 | > 50 | IC50 (NIH3T3 mouse fibroblasts): > 50 µM
8 |  | CCOc1ccccc1OCCCCCOc1coc(CO)cc1=O [EH18601, 5-[5-(2-Ethyloxyphenyloxy)pentyloxy]-2-(hydroxymethyl)-4H-pyran-4-one] | 50 | 25 | 15 | > 50 | Cell architecture modification phase contrast (cell architecture): −; Invasion (MDA-MB-231 cells): No effect; IC50 (NIH3T3 mouse fibroblasts): > 50 µM
9 |  | O=C(O)c1cc(=O)c(OCCCCOc2ccc(Cl)c(Cl)c2)co1 [EH20700, 5-[4-(3,4-Dichlorophenyloxy)butyloxy] oxo-4H-pyran-2-carboxylic acid] | > 50 | > 50 | > 50 | > 50 | 
10 |  | C/C=C/c1oc(C(=O)O)cc(=O)c1OCCCCCOc1ccc(Cl)c(Cl)c1CCC [EH22501, (E)-3-[5-(3,4-Dichloro-2-propylphenyloxy)pentyloxy]-2-(propen-1-yl)-4-oxo-4H-pyran-6-carboxylic acid] | > 50 | > 50 | > 50 | 50 | IC50 (NIH3T3 mouse fibroblasts): > 50 µM
11 |  | CCCc1ccccc1OCCCCCOc1coc(C(=O)O)cc1=O [EH26900, 5-[5-(2-Propylphenyloxy)pentyloxy]-4-oxo-4H-pyran-2-carboxylic acid] | > 50 | > 50 | > 50 | > 50 | 
12 |  | CCCc1c(OCCCCCOc2coc(C(=O)O)cc2=O)ccc(Cl)c1Cl [EH27900] | > 50 | > 50 | 40 | > 25 | 
13 | 215 to 220 °C | O=C(OCc1cc(=O)c(OCCCCCn2ccc3ccccc32)co1)c1ccc(Cl)cc1 [EHT 0078, 4-Chloro-benzoic acid 5-(5-indol-1-yl-pentyloxy)-4-oxo-4H-pyran-2-ylmethyl ester] |  |  |  |  | 
14 | 81 to 83 °C | CCNC(=O)OCc1cc(=O)c(OCCCCCn2ccc3ccccc32)co1 [EHT 1120, Ethyl-carbamic acid 5-(5-indol-1-yl-pentyloxy)-4-oxo-4H-pyran-2-ylmethyl ester] |  |  |  |  | 
15 | 170 to 171 °C | O=C(Nc1ccc(Cl)cc1)OCc1cc(=O)c(OCCCCCn2ccc3ccccc32)co1 [EHT 2232, (4-Chloro-phenyl)-carbamic acid 5-(5-indol-1-yl-pentyloxy)-4-oxo-4H-pyran-2-ylmethyl ester] |  |  |  |  | 
16 | 62 to 66 °C | O=C(OCc1cc(=O)c(OCCCCCn2ccc3ccccc32)co1)C1CCCCC1 [EHT 2253, Cyclohexanecarboxylic acid 5-(5-indol-1-yl-pentyloxy)-4-oxo-4H-pyran-2-ylmethyl ester] |  |  |  |  | 
17 | 77 to 79 °C | CCCc1c(Cl)cc(Cl)cc1OCCCCCOc1coc(CO)cc1=O [EHT 2991] |  |  |  |  | 
18 | 123 to 125 °C | C/C=C/c1oc(CO)cc(=O)c1OCCCCCOc1ccc(C#N)c(F)c1 [EHT 4112, (E)-2-Fluoro-4-[5-(6-hydroxymethyl-4-oxo-2-propenyl-4H-pyran-3-yloxy)-pentyloxy]-benzonitrile] |  |  |  |  | 
19 | 103 to 105 °C (dec.) | O=C(OCc1cc(=O)c(OCCCCCn2ccc3ccccc32)co1)c1ccoc1 [EHT 4167, Furan-3-carboxylic acid 5-(5-indol-1-yl-pentyloxy)-4-oxo-4H-pyran-2-ylmethyl ester] |  |  |  |  | 
20 | 150 °C (dec.) | O=C(Nc1ccccc1)OCc1cc(=O)c(OCCCCCn2ccc3ccccc32)co1 [EHT 4902, Phenyl-carbamic acid 5-(5-indol-1-yl-pentyloxy)-4-oxo-4H-pyran-2-ylmethyl ester] |  |  |  |  | 
21 | 90 to 92 °C | C/C=C/c1oc(CO)cc(=O)c1OCCCCCOc1cc(C(F)(F)F)cc(C(F)(F)F)c1 [EHT 5403, (E)-3-[5-(3,5-Bis-trifluoromethyl-phenoxy)-pentyloxy]-6-hydroxymethyl-2-propenyl-4H-pyran-4-one] |  |  |  |  | 
22 | 98 to 100 °C | C=CCc1cc(Cl)ccc1OCCCCCOc1coc(CO)cc1=O [EHT 5431, 5-[5-(2-Allyl-4-chloro-phenoxy)-pentyloxy]-2-hydroxymethyl-4H-pyran-4-one] |  |  |  |  | 
23 | 92 to 94 °C | CCCc1cc(Cl)ccc1OCCCCCOc1coc(CO)cc1=O [EHT 6152, 5-[5-(4-Chloro-2-propyl-phenoxy)pentyloxy]-2-hydroxymethyl-4H-pyran-4-one] |  |  |  |  | 
24 | 71 to 73 °C | O=C(OCc1cc(=O)c(OCCCCCn2ccc3ccccc32)co1)c1ccccc1 [EHT 6517, Benzoic acid 5-(5-indol-1-yl-pentyloxy)-4-oxo-4H-pyran-2-ylmethyl ester] |  |  |  |  | 
25 | 59 to 61 °C | C=CCc1c(Cl)cc(Cl)cc1OCCCCCOc1coc(CO)cc1=O [EHT 6978, 5-[5-(2-Allyl-3,5-dichloro-phenoxy)-pentyloxy]-2-hydroxymethyl-4H-pyran-4-one] |  |  |  |  | 
26 | 86 to 87 °C | C/C=C/c1oc(CO)cc(=O)c1OCCCCCOc1ccc(F)c(F)c1 [EHT 8307] |  |  |  |  | 
27 | 91 to 93 °C | C/C=C/c1oc(CO)cc(=O)c1OCCCCCOc1cc(Cl)cc(Cl)c1CCC [EHT 9916, (E)-3-[5-(3,5-Dichloro-2-propyl-phenoxy)-pentyloxy]-6-hydroxymethyl-2-propenyl-4H-pyran-4-one] |  |  |  |  | 
